Legend:
[1] = tested on: eGFP-expressing recombinant CVB3; type: cell-based, coxsackievirus B3; settings: for Inhibition of infected cells: eGFP-CVB3 m.o.i=1, compound added at time of infection, 6 hr post infection, 1-(% eGFP+ cells with compound/% with DMSO only)
CVB3-H3 = assay: Plaque reduction assay, CVB3-H3 in HeLa-RW cells; type: cell-based, coxsackievirus B3; settings: compound added 30 min before infection, CVB3-H3 MOI 1, HeLa-RW, 6 hours; log10(titer with DMSO only/titer with inhibitor)

Compound	Inhibition of infected cells [1] [%]	Log10 reduction of virus titer (CVB3-H3)	% of eGFP + cells, 0 Hr ([1]; compound added 0 hr post infection at its peak activity concentration, read 6 hr post infection, DMSO 26.0) [%]	% of eGFP + cells, 1 Hr ([1]; compound added 1 hr post infection at its peak activity concentration, read 6 hr post infection, DMSO 23.7) [%]	% of eGFP + cells, 2 Hr ([1]; compound added 2 hr post infection at its peak activity concentration, read 6 hr post infection, DMSO 24.8) [%]
O=C(O)c1cccc(NS(=O)(=O)c2ccc(-c3ccccc3)cc2)c1 [Compound 56, 3-[(4-Biphenylylsulfonyl)amino] benzoic acid]	85.4	0.3			
CC1Oc2ccc(NC(=O)c3cc(-c4cccs4)nc4ccccc34)cc2NC1=O (stereo not drawn) [Compound 30, N-(2-Methyl-3-oxo-3,4-dihydro-2H-1,4-benzoxazin-6-yl)-2-(2-thienyl)-4-quinolinecarboxamide]	100	4.1			
C#CCSc1nc2ccccc2c(=O)n1Cc1ccccc1 [Compound 48, 3-Benzyl-2-(2-propyn-1-ylsulfanyl)-4(3H)-quinazolinone]	100	4.5			
Nc1nnc(SCc2nc3cc(Cl)ccc3n2Cc2ccccc2)s1 [Compound 43, 5-{[(1-Benzyl-5-chloro-1H-benzimidazol-2-yl)methyl]sulfanyl}-1,3,4-thiadiazol-2-amine]	91.3	0.3			
CCOc1ccc(C(=O)N2CCC(C(=O)c3ccc4c(c3)OCCO4)CC2)cc1 [Compound 44, 2,3-Dihydro-1,4-benzodioxin-6-yl[1-(4-ethoxybenzoyl)-4-piperidinyl] methanone]	84.9	0.2			
Cc1ccc(NC(=O)c2cc(C3CC3)nc3c2cnn3C(C)C)cc1S(N)(=O)=O [Compound 11, 6-Cyclopropyl-1-isopropyl-N-(4-methyl-3-sulfamoylphenyl)-1H-pyrazolo[3,4-b]pyridine-4-carboxamide]	99.6	4.1			
CCN(CC)CCNC1CCCc2c1[nH]c1ccc(C)cc21.Cl (stereo not drawn) [Compound 66, N,N-Diethyl-2-[(6-methyl-2,3,4,9-tetrahydro-1H-carbazol-1-yl)amino] ethanaminium chloride]	99.6	4.4			
NNC(=O)c1cc(-c2ccccc2)nc2ccccc12 [Compound 26, 2-Phenyl-4-quinoline-carbohydrazide]	98.7	2.5			
Cc1cc(F)ccc1NC(=O)c1cc(-c2cccs2)nc2c1cnn2C(C)C [Compound 4, N-(4-Fluoro-2-methylphenyl)-1-isopropyl-6-(2-thienyl)-1H-pyrazolo[3,4-b] pyridine-4-carboxamide]	100	4.5			
CCC(C)(C)Nc1c(-c2ccc(OC)c(CN3CCOCC3)c2)nc2cnccn12 [Compound 60, 2-[4-Methoxy-3-(4-morpholinylmethyl)phenyl]-N-(2-methyl-2-butanyl) imidazo[1,2-a]pyrazin-3-amine]	100	1.8			
Cl.O[C@@H]1[C@@H](O)C=C2CCN3Cc4cc5c(cc4[C@H]1C23)OCO5 (stereo partly drawn) [Compound 73, (1S,2S,12bS)-2,4,5,7,12b,12c-Hexahydro-1H-[1,3]dioxolo[4,5-j]pyrrolo[3,2,1-de] phenanthridine-1,2-diol hydrochloride (1:1), reference compound]	100	2.8			
1-Isopropyl- N,6-diphenyl-1H- pyrazolo[3,4-b] pyridine- 4-carboxamide [Compound 16]	100	4.5	0.0	0.1	0.0
O=C(c1ccco1)N(Cc1ccccc1)Cc1ccccn1 [Compound 58, N-Benzyl-N-(2-pyridinylmethyl)-2-furamide]	91.7	2.4			
CCCCOc1cc(C(=O)NCCN(CC)CC)c2ccccc2n1 [Compound 35, 2-Butoxy-N-[2-(diethylamino)ethyl]-4-quinoline-carboxamide, reference compound]	100				

Reference: patent publication US20150164910A1, “ANTIVIRAL COMPOUNDS AND METHODS OF USE” (The Regents of the University of Califonia, priority 2012, published 2015)
